US20120015923A1, “USE OF ANDROGRAPHOLIDE COMPOUNDS FOR TREATING INFLAMMATION AND AIRWAY DISORDERS” (NATIONAL UNIVERSITY OF SINGAPORE, priority 2009, published 2012)

Tests used:
Assay type in all cases: in vivo, BALB/c mice
[1] = test system: IL-4, IL-5, IL-13, eotaxin and IFN-γ in the BAL fluid; assay: Cytokine and chemokine levels in BAL fluid (ELISA), OVA mouse asthma model; details: OVA-challenged mice
[2] = test system: IL-4, IL-5, IL-13, eotaxin and IFN-γ in the BAL fluid; assay: as above; details: OVA-challenged mice; remark: listed apart in the source
Procedure: Andrographolide or DDAG alone (0.1, 0.5, and 1 mg/kg; Sigma, St. Louis, Mo.) or vehicle (1% dimethyl sulfoxide [DMSO]) in 0.1 ml saline was given by intraperitoneal injections 2 hour before and 10 hours after each OVA aerosol challenge. Andrographolide or 14-deoxy-11,12-didehydroandrographolide (DDA) were prepared from stock. DMSO was used as a solvent to dissolve Andrographolide or DDA. A stock solution of 10 mg/ml was prepared and stored at −20° C. When used, the stock solution was thawed and diluted with Saline solution to form three different drug concentrations: 0.01 mg/ml, 0.05 mg/ml and 0.1 mg/ml.
Bronchoalveolar lavage (BAL) was conducted on Day 25, 24 hours after the final OVA/saline challenge. Mice were anaesthetized by 0.3 ml i.p. injections of an anesthetic cocktail (ketamine: medetomidine: H2O=3:4:33, Parnell, Alexandria NSW, Australia & Pfizer, Auckland, New Zealand) with 27 G½ sterile needle (PrecisionGlide®). Mice were sacrificed by cervical dislocation 5 minutes after anesthetization. 25 G½ sterile needles (PrecisionGlide®) were used for blood extraction. […] Tracheotomy was then performed and a small transverse incision was made on the exposed trachea. Blunt needles (20 G), which were connected to 1 ml sterile syringes, were inserted into the trachea through this incision and 0.5 ml of ice-cold PBS (4° C.) was instilled thrice into the lungs (0.5 ml×3). About 1.2-1.4 ml of BAL fluid was retrieved from each mouse and was kept in −80° C. for subsequent experiments.
DDAG alone (0.1, 0.5, and 1 mg/kg; Sigma, St. Louis, Mo.) or vehicle (2% dimethyl sulfoxide [DMSO]) in 0.1 ml saline was given by intraperitoneal injections 2 hour before and 10 hours after each OVA aerosol challenge. In the combinational experiments, DDAG (0.1 mg/kg) in combination with Dexamethasone (0.05 mg/kg) was given intraperitoneally. In both experimental setting, saline aerosol was used as a negative control. Animal experiments were performed according to the Institutional guidelines for Animal Care and Use Committee of the National University of Singapore.
Levels of IL-4, 11-5, IL-13, eotaxin and IFN-γ in the BAL fluid were measured (IL-4, IL-5 and IFN-γ from BD Biosciences Pharmingen, San Diego, Calif., USA; IL-13 and eotaxin from R&D Systems, Minneapolis, Minn., USA). The kits were obtained from two different manufacturers and thus the protocols differed in certain steps. In brief, 50 μl of coating capture antibody in respective coating buffers (pH 9.5, 0.1 M sodium carbonate for IL-4, IL-5 and IFN-γ; 1×PBS for IL-13 and eotaxin) was coated to 96-well ELISA plate (NUNC, Denmark). The plate was sealed with parafilm and incubated overnight at respective temperature (4° C. for IL-4, IL-5 and IFN-γ and room temperature for IL-13 and eotaxin). Next day, each well was washed with washing buffer (PBS with 0.05% Tween-20) and blocked with 200 μl blocking buffer (PBS with 10% FBS for IL-4, IL-5 and IFN-γ; 1×PBS with 1% BSA and 5% sucrose for IL-13 and eotaxin) for 2 hours at room temperature. After blocking, 50 μl of standards and BAL fluid samples were loaded into respective wells, and incubated for 2 h at room temperature. Several washings were done to remove unbound molecules. The plate was incubated with biotinylated-detection antibody with HRP for 1 h (BD OptEIA™ Kit) or with biotinylated detection antibody for 1 h followed by HRP for 45 min (R&D Kit). After washing, 50 μl of TMB peroxidase substrate (solution A: solution B=9:1) was added into each well, and incubated for 30 min in dark. Lastly, 50 μl of stopping solution (1 M H2SO4) was added to stop the reaction. The optical density of each well in the plate was read at 450 nm with λ correction at 570 nm. Detection limits of the respective kits are as follow: 4 pg/ml for IL-4 and IL-5; 15.6 pg/ml for IL-13 and IFN-γ; and 2 pg/ml for eotaxin.

[3] = test system: p65 NF-κB; assay: p65 NF-κB nuclear translocation and DNA-binding in lung tissue nuclear extracts; details: 1 mg/kg; 24 hours after last OVA aerosol; reduced to the basal levels
Procedure: Lung and cell culture nuclear proteins ([…]) were isolated. Lysates were incubated on ice for 30 min before centrifugation (18,000 g for 5 min). The supernatants were collected, and protein concentrations were determined using a BCA protein assay kit. 28 μl of the protein measured were mixed with 7 μl 5× sample buffer and boiled at 95° C. for 5 min. 10% SDS-PAGE gel was set as known in the art. The gel was placed in a Trans-Blot tank (Bio-Rad Laboratories, Hercules, Calif.). 30 μl of the sample mixtures and Pre-stained SDS Page Marker (Bio-Rad Laboratories, Hercules, Calif.) were loaded into respective wells and ran at 100V for 2 hours. The proteins were then transferred to a PVDF membrane using a semi-dry transblotter (ATTO Corp, Tokyo, Japan). The PVDF membrane was blocked with 5% non-fat milk in Tween-20 Tris buffered saline (TTBS) for 2 hours and probed with various primary antibodies in 1% non-fat milk in TTBS (1:2,000 for anti-rabbit antibodies; 1:5,000 for anti-mouse antibodies; 1:10,000 for β-actin) overnight at 4° C. The PVDF was then washed with TTBS for 10 times (2-3 min each), and incubated in HRP- or AP-conjugated anti-mouse or anti-rabbit antibodies for 1 hour. The membrane was again washed with TTBS. […]
Nuclear proteins were also analyzed for NF-κB DNA-binding activity using the TransAM p65 transcription factor assay kit (Active Motif, Carlsbad, Calif.).

[4] = test system: Nitric Oxide (NO); assay: Serum nitrate nitrite level; details: OVA-challenged mice
[5] = 0.1, 0.5, 1 mg/kg i.p., 24 hours after last OVA aerosol, vs DMSO control

`C=C1CC[C@@H]2[C@](C)(CO)[C@H](O)CC[C@@]2(C)[C@@H]1C/C=C1/C(=O)OC[C@H]1O` [Andrographolide] was tested, and the “GM-CSF level in BAL fluid” value [1] was “inhibited”, the “TNF-α level in BAL fluid” value [1] was “inhibited” and the “IL-4 level in BAL fluid” value [2, 5] was “inhibited”. For the same molecule, the “IL-5 level in BAL fluid” value [2, 5] was “inhibited”, the “IL-13 level in BAL fluid” value [2, 5] was “inhibited” and the “eotaxin level in BAL fluid” value [2, 5] was “inhibition”.

With `C=C1CCC2C(C)(CO)C(O)CCC2(C)C1C=CC1=CCOC1=O` (stereo not shown) [DDAG, 14-Deoxy-11,12-didehydroandrographolide] the “nuclear p65 DNA-binding activity in lung tissue nuclear extract” value [3] was “significantly (P<0.05) reduced”, the “nuclear p65 amount in lung tissue nuclear extract” value [3] was “significantly (P<0.05) reduced” and the “serum nitrate nitrite level” value [4] was “reduce”. The “IFN-γ level in BAL fluid” value ([2]; 1 mg/kg) was “markedly upregulated”, the “IL-4 level in BAL fluid” value [2, 5] was “significantly (P<0.05) reduced” and the “IL-5 level in BAL fluid” value [2, 5] was “significantly (P<0.05) reduced”. For the same molecule, the “IL-13 level in BAL fluid” value [2, 5] was “significantly (P<0.05) reduced”.
